{
  "source": "patent US12264134B2",
  "about": "(Merck Sharp & Dohme LLC, priority 2018, dated 2025)",
  "data": [
    {"target": "IDO1 (Homo sapiens, UniProt P14902)", "sequence (P14902 whole entry)": "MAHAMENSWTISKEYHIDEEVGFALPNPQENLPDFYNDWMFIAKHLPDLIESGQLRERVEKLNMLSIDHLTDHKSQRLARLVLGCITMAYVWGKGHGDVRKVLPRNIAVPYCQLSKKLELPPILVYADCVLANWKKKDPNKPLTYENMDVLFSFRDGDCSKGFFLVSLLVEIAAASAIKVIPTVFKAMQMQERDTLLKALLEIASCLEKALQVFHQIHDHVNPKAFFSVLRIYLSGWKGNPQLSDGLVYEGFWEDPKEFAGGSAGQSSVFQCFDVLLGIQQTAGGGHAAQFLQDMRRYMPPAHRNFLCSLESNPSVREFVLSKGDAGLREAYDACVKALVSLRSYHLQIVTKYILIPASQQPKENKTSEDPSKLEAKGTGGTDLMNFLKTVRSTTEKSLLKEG", "test": "IDO1 Cellular Assay in HeLa Cells Stimulated with IFNγ", "format": "cell-based", "details": "read-out: HeLa Cell Potency, IC50", "units": {"IC50": "µM"}, "values": [
      {"smiles": "Cc1ccc(N2CCN(C(=O)Cn3nc(C(=O)N4C[C@@H](C)O[C@@H](C)C4)c4c3CCC4)CC2)c(F)c1", "note": "[Example 56, 2-{3-[(2R,6S)-2,6-dimethylmorpholine-4-carbonyl]-5,6-dihydrocyclopenta[c]pyrazol-1(4H)-yl}-1-[4-(2-fluoro-4-methylphenyl)piperazin-1-yl]ethan-1-one]", "IC50": 0.126},
      {"smiles": "C[C@@H]1CN(C(=O)c2nn(CC(=O)N3CCN(c4ccc(F)c(C(F)F)c4)CC3)c3c2CCC3)C[C@H](C)O1", "note": "[Example 58, 1-{4-[3-(difluoromethyl)-4-fluorophenyl]piperazin-1-yl}-2-{3-[(2R,6S)-2,6-dimethylmorpholine-4-carbonyl]-5,6-dihydrocyclopenta[c]pyrazol-1(4H)-yl}ethan-1-one]", "IC50": 0.447},
      {"smiles": "C[C@@H]1CN(C(=O)c2nn(CC(=O)N3CCN(c4ccccc4C4CC4)CC3)c3c2CCC3)C[C@H](C)O1", "note": "[Example 59, 1-[4-(2-cyclopropylphenyl)piperazin-1-yl]-2-{3-[(2R,6S)-2,6-dimethylmorpholine-4-carbonyl]-5,6-dihydrocyclopenta[c]pyrazol-1(4H)-yl}ethan-1-one]", "IC50": 0.319},
      {"smiles": "CCc1cccc(N2CCN(C(=O)Cn3nc(C(=O)N4C[C@@H](C)O[C@@H](C)C4)c4c3CCC4)CC2)c1", "note": "[Example 60, 2-{3-[(2R,6S)-2,6-dimethylmorpholine-4-carbonyl]-5,6-dihydrocyclopenta[c]pyrazol-1(4H)-yl}-1-[4-(3-ethylphenyl)piperazin-1-yl]ethan-1-one]", "IC50": 0.209},
      {"smiles": "Cc1ccc(N2CCN(C(=O)Cn3nc(C(=O)N4C[C@@H](C)O[C@@H](C)C4)c4c3CCC4)CC2)cc1Cl", "note": "[Example 61, 1-[4-(3-chloro-4-methylphenyl)piperazin-1-yl]-2-{3-[(2R,6S)-2,6-dimethylmorpholine-4-carbonyl]-5,6-dihydrocyclopenta[c]pyrazol-1(4H)-yl}ethan-1-one]", "IC50": 0.0656},
      {"smiles": "COc1cc(F)c(N2CCN(C(=O)Cn3nc(C(=O)N4C[C@@H](C)O[C@@H](C)C4)c4c3CCC4)CC2)cc1F", "note": "[Example 62, 1-[4-(2,5-difluoro-4-methoxyphenyl)piperazin-1-yl]-2-{3-[(2R,6S)-2,6-dimethylmorpholine-4-carbonyl]-5,6-dihydrocyclopenta[c]pyrazol-1(4H)-yl}ethan-1-one]", "IC50": 0.146},
      {"smiles": "COc1c(C#N)cccc1N1CCN(C(=O)Cn2nc(C(=O)N3C[C@@H](C)O[C@@H](C)C3)c3c2CCC3)CC1", "note": "[Example 63, 3-[4-({3-[(2R,6S)-2,6-dimethylmorpholine-4-4-carbonyl]-5,6-dihydrocyclopenta[c]pyrazol-1(4H)-yl}acetyl)piperazin-1-yl]-2-methoxybenzonitrile]", "IC50": 0.335},
      {"smiles": "Cc1ccc(N2CCN(C(=O)Cn3nc(C(=O)N4C[C@@H](C)O[C@@H](C)C4)c4c3CCC4)CC2)cc1F", "note": "[Example 64, 2-{3-[(2R,6S)-2,6-dimethylmorpholine-4-carbonyl]-5,6-dihydrocyclopenta[c]pyrazol-1(4H)-yl}-1-[4-(3-fluoro-4-methylphenyl)piperazin-1-yl]ethan-1-one]", "IC50": 0.0304},
      {"smiles": "COc1c(F)cccc1N1CCN(C(=O)Cn2nc(C(=O)N3C[C@@H](C)O[C@@H](C)C3)c3c2CCC3)CC1", "note": "[Example 65, 2-{3-[(2R,6S)-2,6-dimethylmorpholine-4-carbonyl]-5,6-dihydrocyclopenta[c]pyrazol-1(4H)-yl}-1-[4-(3-fluoro-2-methoxyphenyl)piperazin-1-yl]ethan-1-one]", "IC50": 0.145},
      {"smiles": "C[C@@H]1CN(C(=O)c2nn(CC(=O)N3CCN(c4ccc(Cl)cc4Cl)CC3)c3c2CCC3)C[C@H](C)O1", "note": "[Example 67, 1-[4-(2,4-dichlorophenyl)piperazin-1-yl]-2-{3-[(2R,6S)-2,6-dimethylmorpholine-4-carbonyl]-5,6-dihydrocyclopenta[c]pyrazol-1(4H)-yl}ethan-1-one]", "IC50": 0.133},
      {"smiles": "C[C@@H]1CN(C(=O)c2nn(CC(=O)N3CCN(c4cccc(Cl)c4Cl)CC3)c3c2CCC3)C[C@H](C)O1", "note": "[Example 69, 1-[4-(2,3-dichlorophenyl)piperazin-1-yl]-2-{3-[(2R,6S)-2,6-dimethylmorpholine-4-carbonyl]-5,6-dihydrocyclopenta[c]pyrazol-1(4H)-yl}ethan-1-one]", "IC50": 0.0121},
      {"smiles": "C[C@@H]1CN(C(=O)c2nn(CC(=O)N3CCN(c4ccc(F)c(F)c4F)CC3)c3c2CCC3)C[C@H](C)O1", "note": "[Example 70, 2-{3-[(2R,6S)-2,6-dimethylmorpholine-4-carbonyl]-5,6-dihydrocyclopenta[c]pyrazol-1(4H)-yl}-1-[4-(2,3,4-trifluorophenyl)piperazin-1-yl]ethan-1-one]", "IC50": 0.235},
      {"smiles": "Cc1cc(C)c(N2CCN(C(=O)Cn3nc(C(=O)N4C[C@@H](C)O[C@@H](C)C4)c4c3CCC4)CC2)cc1C", "note": "[Example 71, 2-{3-[(2R,6S)-2,6-dimethylmorpholine-4-carbonyl]-5,6-dihydrocyclopenta[c]pyrazol-1(4H)-yl}-1-[4-(2,4,5-trimethylphenyl)piperazin-1-yl]ethan-1-one]", "IC50": 0.145},
      {"smiles": "CCc1ccccc1N1CCN(C(=O)Cn2nc(C(=O)N3C[C@@H](C)O[C@@H](C)C3)c3c2CCC3)CC1", "note": "[Example 72, 2-{3-[(2R,6S)-2,6-dimethylmorpholine-4-carbonyl]-5,6-dihydrocyclopenta[c]pyrazol-1(4H)-yl}-1-[4-(2-ethylphenyl)piperazin-1-yl]ethan-1-one]", "IC50": 0.125},
      {"smiles": "C[C@@H]1CN(C(=O)c2nn(CC(=O)N3CCN(c4ccc5c(c4)CCCO5)CC3)c3c2CCC3)C[C@H](C)O1", "note": "[Example 73, 1-[4-(3,4-dihydro-2H-1-benzopyran-6-yl)piperazin-1-yl]-2-{3-[(2R,6S)-2,6-dimethylmorpholine-4-carbonyl]-5,6-dihydrocyclopenta[c]pyrazol-1(4H)-yl}ethan-1-one]", "IC50": 0.176},
      {"smiles": "C[C@@H]1CN(C(=O)c2nn(CC(=O)N3CCN(c4cc(F)c(F)cc4F)CC3)c3c2CCC3)C[C@H](C)O1", "note": "[Example 74, 2-{3-[(2R,6S)-2,6-dimethylmorpholine-4-carbonyl]-5,6-dihydrocyclopenta[c]pyrazol-1(4H)-yl}-1-[4-(2,4,5-trifluorophenyl)piperazin-1-yl]ethan-1-one]", "IC50": 0.289},
      {"smiles": "Cc1ccc(F)cc1N1CCN(C(=O)Cn2nc(C(=O)N3C[C@@H](C)O[C@@H](C)C3)c3c2CCC3)CC1", "note": "[Example 75, 2-{3-[(2R,6S)-2,6-dimethylmorpholine-4-carbonyl]-5,6-dihydrocyclopenta[c]pyrazol-1(4H)-yl}-1-[4-(5-fluoro-2-methylphenyl)piperazin-1-yl]ethan-1-one]", "IC50": 0.0341},
      {"smiles": "C[C@@H]1CN(C(=O)c2nn(CC(=O)N3CCN(c4cc(F)ccc4F)CC3)c3c2CCC3)C[C@H](C)O1", "note": "[Example 76, 1-[4-(2,5-difluorophenyl)piperazin-1-yl]-2-{3-[(2R,6S)-2,6-dimethylmorpholine-4-carbonyl]-5,6-dihydrocyclopenta[c]pyrazol-1(4H)-yl}ethan-1-one]", "IC50": 0.439},
      {"smiles": "Cc1c(F)cccc1N1CCN(C(=O)Cn2nc(C(=O)N3C[C@@H](C)O[C@@H](C)C3)c3c2CCC3)CC1", "note": "[Example 77, 2-{3-[(2R,6S)-2,6-dimethylmorpholine-4-carbonyl]-5,6-dihydrocyclopenta[c]pyrazol-1(4H)-yl}-1-[4-(3-fluoro-2-methylphenyl)piperazin-1-yl]ethan-1-one]", "IC50": 0.0183},
      {"smiles": "C[C@@H]1CN(C(=O)c2nn(CC(=O)N3CCN(c4cccc(Cl)c4F)CC3)c3c2CCC3)C[C@H](C)O1", "note": "[Example 78, 1-[4-(3-chloro-2-fluorophenyl)piperazin-1-yl]-2-{3-[(2R,6S)-2,6-dimethylmorpholine-4-carbonyl]-5,6-dihydrocyclopenta[c]pyrazol-1(4H)-yl}ethan-1-one]", "IC50": 0.0382},
      {"smiles": "C[C@@H]1CN(C(=O)c2nn(CC(=O)N3CCN(c4cccc5c4cnn5C)CC3)c3c2CCC3)C[C@H](C)O1", "note": "[Example 79, 2-{3-[(2R,6S)-2,6-dimethylmorpholine-4-carbonyl]-5,6-dihydrocyclopenta[c]pyrazol-1(4H)-yl}-1-[4-(1-methyl-1H-indazol-4-yl)piperazin-1-yl]ethan-1-one]", "IC50": 0.0831},
      {"smiles": "C[C@@H]1CN(C(=O)c2nn(CC(=O)N3CCN(c4cccc5c4CCC5)CC3)c3c2CCC3)C[C@H](C)O1", "note": "[Example 80, 1-[4-(2,3-dihydro-1H-inden-4-yl)piperazin-1-yl]-2-{3-[(2R,6S)-2,6-dimethylmorpholine-4-carbonyl]-5,6-dihydrocyclopenta[c]pyrazol-1(4H)-yl}ethan-1-one]", "IC50": 0.00668},
      {"smiles": "Cc1cccc(N2CCN(C(=O)Cn3nc(C(=O)N4CCC5(CC4)CN(C)C(=O)O5)c4c3CCC4)CC2)c1C", "note": "[Example 81, 8-(1-(2-(4-(2,3-dimethylphenyl)piperazin-1-yl)-2-oxoethyl)-1,4,5,6-tetrahydrocyclopenta[c]pyrazole-3-carbonyl)-3-methyl-1-oxa-3,8-diazaspiro[4.5]decan-2-one]", "IC50": 0.0058},
      {"smiles": "Cc1cccc(N2CCN(C(=O)Cn3nc(C(=O)N4CCC(C)(O)CC4)c4c3CCC4)CC2)c1C", "note": "[Example 82, 1-[4-(2,3-dimethylphenyl)piperazin-1-yl]-2-[3-(4-hydroxy-4-methylpiperidine-1-carbonyl)-5,6-dihydrocyclopenta[c]pyrazol-1(4H)-yl]ethan-1-one]", "IC50": 0.00275},
      {"smiles": "Cc1cccc(N2CCN(C(=O)Cn3nc(C(=O)N4CCC(=O)N(C)CC4)c4c3CCC4)CC2)c1C", "note": "[Example 84, 1-(1-{2-[4-(2,3-dimethylphenyl)piperazin-1-yl]-2-oxoethyl}-1,4,5,6-tetrahydrocyclopenta[c]pyrazole-3-carbonyl)-4-methyl-1,4-diazepan-5-one]", "IC50": 0.0156},
      {"smiles": "Cc1cccc(N2CCN(C(=O)Cn3nc(C(=O)N4CCN(C(=O)CO)CC4)c4c3CCC4)CC2)c1C", "note": "[Example 85, 1-[4-(2,3-dimethylphenyl)piperazin-1-yl]-2-{3-[4-(hydroxyacetyl)piperazine-1-carbonyl]-5,6-dihydrocyclopenta[c]pyrazol-1(4H)-yl}ethan-1-one]", "IC50": 0.0265},
      {"smiles": "COC(=O)N1CCN(C(=O)c2nn(CC(=O)N3CCN(c4cccc(C)c4C)CC3)c3c2CCC3)CC1", "note": "[Example 86, methyl 4-(1-{2-[4-(2,3-dimethylphenyl)piperazin-1-yl]-2-oxoethyl]-1,4,5,6-tetrahydrocyclopenta[c]pyrazole-3-carbonyl)piperazine-1-carboxylate]", "IC50": 0.00412}
    ]}
  ]
}
